One compound from patent publication EP0942896B1, “SUBSTITUTED PHENOLS AND THIOPHENOLS USEFUL AS ANTIOXIDANT AGENTS” (Aventis Pharmaceuticals Inc., priority 1996, dated 1998) can be followed below.

The nature of series [1]: Animal parameters (food, body weight, liver weight/body weight) in cholesterol-fed rabbits. In kind it is in vivo, Female New Zealand White rabbits. Conditions: % of control, diet 0.4%, 7 days, 0.2% cholesterol chow, N = 5. An excerpt:
(§1) Perform five independent experiments in the following manner. Each study has a control group and 1-5 groups treated with MDL compound (N = 5 per group). Feed Female New Zealand White rabbits (Hazelton, ∼ 2.0-2.3 kg) 0.2% cholesterol enriched rabbit chow (Purina #5322) with or without 0.4% MDL compound. Solubilize the MDL compounds in 100% ethanol. Spray the chow with the MDL mixtures and allow to dry overnight in a chemical fume hood. Spray control chow with ethanol. Feed rabbits 100 grams food per day for 7 days (0.6% MDL 103,491 were fed for 14 days); make available water ad libitum. On day 7, bleed (~ 2 mL) rabbits (fasted overnight) from a marginal ear vein. Euthanize rabbits by carbon dioxide overdose. Record the total body and liver weights in grams. Record food as grams • day^-1 · rabbit^-1. Use aliquots of fresh serum for clinical chemistries, lipoprotein cholesterol determination, thiobarbituric acid reactive substances (TBARS) and compound and metabolite concentrations in serum. Freeze livers (∼ 5 gram aliquots) at -20°C for compound and metabolite concentration determination at a later time.

The nature of series [2]: HPLC quantitation of compound and metabolite concentration in rabbit serum and liver. Conditions: female, New Zealand White, oral, 0.4 % in chow, diet 0.4%, 7 days, mean N = 5. It counts as in vivo, Female New Zealand White rabbits.
Description: as §1
Determine serum and liver concentrations of parent compounds and the metabolites, bisphenol and diphenoquinone, by reverse phase HPLC using a Waters 990 Powerline system. […] Calculate compound concentrations from known quantities of authentic parent compounds after correction for recovery. […]

Like-named read-outs stand apart in the source and are kept apart here.

For the compound `CC(C)=CCC[C@H](C)CCOc1cc(C(C)(C)C)c(O)c(C(C)(C)C)c1` [MDL 103,294, Phenol, 2,6-bis(1,1-dimethylethyl)-4-[(3,7-dimethyl-6-octenyl)oxy]-, (S)-], the food in series [1] (grams eaten per day per rabbit) worked out at 103%. In series [1] (liver weight / body weight), the lw/bw turned out to be 105%. Also, the body wt. in series [1] (weight in grams) is 100%. Further, the concentration at 7 day in series [2] (parent compound concentration in rabbit liver, read-out: Liver Parent) was determined as 77000 ng/g; in series [2] (parent compound concentration in rabbit serum, read-out: Serum Parent) it was 19800 ng/mL.
